Molecular target: CDK-2 (Homo sapiens, UniProt P24941)
Assay: CDK-2 inhibition (Table 1; fluorescence polarization displacement assay)
Assay type: binding
Settings: inhibitory effectiveness toward CDK-2
Protocol: The affinity of lead inhibitors binding to CDK-2 and CDK-2/cyclin A were determined by measuring a Ki value using a fluorescence polarization displacement assay. The deacetylated form of compound BMS-250595 was reacted with Alexa Fluor 647 to generate a compound (BMS-Alexa Fluor647) that bound to both proteins and provided a signal for fluorescence polarization displacement. Binding assays were performed in a 384 well Costar NBS coated plate. A total volume of […] contained concentrations of CDK-2 or CDK-2/cyclin A at […], respectively. The concentration of BMS-Alexa Fluor647 was 50 nM. Serial dilutions of compounds were added to 12 wells. The final buffer concentration was 10 mM Hepes, pH 7.5, 150 mM NaCl, and 1 mM DTT. Samples were incubated at room temperature for 15 minutes and then read in an Analyst HT instrument using an excitation and emission wavelength of 580 and 680 nm, respectively. The […] curve fitting tool described by Zhang et al., 2004 (Zhang R., Mayhood T., Lipari P., Wang Y., Durkin D., Syto R., Gesell J., McNemar C., and Windsor W., Analytical Biochemistry 331 (2004) 138-146)

Molecule `COc1ccc(C(=O)Nc2ccc(C(=O)Nc3ccc(-n4cncn4)cc3)s2)c(C)c1` [Compound 2] has an IC50 of no more than 1000 nM.

Molecule `Cc1cc(N2CCOCC2)ccc1NC(=O)c1ccc(C(=O)Nc2ccc(-n3cncn3)cc2)s1` [Compound 3] has an IC50 of no more than 1000 nM.

`Cc1cc(OCCO)ccc1NC(=O)c1ccc(C(=O)Nc2ccc(-n3cncn3)cc2)s1` [Compound 4] gave an IC50 of no more than 1000 nM.

Molecule `COc1ccc(NC(=O)c2ccc(C(=O)Nc3ccc(-n4cncn4)c(F)c3)o2)c(C)c1` [Compound 5] has an IC50 of no more than 1000 nM.

With `Cc1cc(N2CCOCC2)ccc1NC(=O)c1ccc(C(=O)Nc2ccc(-n3cncn3)c(F)c2)s1` [Compound 6] the IC50 was no more than 1000 nM.

`COc1ccc(NC(=O)c2ccc(C(=O)Nc3ccc(-c4nc[nH]n4)c(F)c3)o2)c(C)c1` [Compound 7] showed an IC50 of no more than 1000 nM.

For `COc1ccc(C(=O)Nc2ccc(C(=O)Nc3ccc(-c4nc[nH]n4)c(F)c3)s2)c(C)c1` [Compound 8], the IC50 was no more than 1000 nM.

Work on `Cc1cc(Cn2ccnc2)ccc1NC(=O)c1ccc(C(=O)Nc2ccc(-n3cncn3)cc2)s1` [Compound 9] yielded an IC50 of no more than 1000 nM.

With `Cc1cc(Cn2ccnc2)ccc1NC(=O)c1ccc(C(=O)Nc2ccc(-n3cncn3)c(F)c2)s1` [Compound 10] the IC50 was no more than 1000 nM.

In the case of `Cc1cc(OCCN2CCOCC2)ccc1NC(=O)c1ccc(C(=O)Nc2ccc(-n3cncn3)cc2)s1` [Compound 11], the IC50 is reported as no more than 1000 nM.

In the case of `Cc1cc(OCCN2CCN(C)CC2)ccc1NC(=O)c1ccc(C(=O)Nc2ccc(-n3cncn3)cc2)s1` [Compound 12], the IC50 is reported as no more than 1000 nM.

For `COc1ccc(NC(=O)c2ccc(C(=O)Nc3ccc(-n4cncn4)cc3)s2)c(C)c1` [Compound 13], the IC50 was no more than 1000 nM.

Molecule `COc1ccc(C(=O)Nc2ccc(C(=O)Nc3ccc(-n4cncn4)c(F)c3)s2)c(C)c1` [Compound 14] has an IC50 of no more than 1000 nM.

Molecule `Cc1cc(N[C@H]2CCNC2)ccc1NC(=O)c1ccc(C(=O)Nc2ccc(-n3cncn3)c(F)c2)s1` [Compound 15] has an IC50 of no more than 1000 nM.

In the case of `Cc1cc(CN2CCOCC2)ccc1NC(=O)c1ccc(C(=O)Nc2ccc(-n3cncn3)cc2)s1` [Compound 16], the IC50 is reported as no more than 1000 nM.

Work on `COc1ccc(NC(=O)c2ccc(C(=O)Nc3ccc(-n4cncn4)c(F)c3)s2)c(C)c1` [Compound 17] yielded an IC50 of no more than 1000 nM.

`O=C(Nc1ccc(-n2cncn2)cc1)c1ccc(C(=O)NC2CCCCC2)o1` [Compound 18] gave an IC50 of no more than 1000 nM.

For `O=C(Nc1ccc(-n2cncn2)c(F)c1)c1ccc(C(=O)Nc2ccccc2Cl)s1` [Compound 19], the IC50 was no more than 1000 nM.

With `Cc1cc(CN2CCOCC2)ccc1NC(=O)c1ccc(C(=O)Nc2ccc(-n3cncn3)c(F)c2)s1` [Compound 20] the IC50 was no more than 1000 nM.

Work on `O=C(Nc1ccc(-n2cncn2)cc1)c1ccc(NC(=O)C2CCCCC2)s1` [Compound 21] yielded an IC50 of no more than 1000 nM.

With `COc1ccc(NC(=O)c2ccc(C(=O)Nc3ccc(-c4nc[nH]n4)c(F)c3)s2)c(C)c1` [Compound 22] the IC50 was no more than 1000 nM.

With `Cc1cc(CN2CCN(C)CC2)ccc1NC(=O)c1ccc(C(=O)Nc2ccc(-n3cncn3)c(F)c2)s1` [Compound 23] the IC50 was no more than 1000 nM.

`Cc1ccccc1NC(=O)c1ccc(C(=O)Nc2ccc(-n3cncn3)cc2)s1` [Compound 24] gave an IC50 of no more than 1000 nM.

For `COc1ccc(NC(=O)c2ccc(C(=O)Nc3ccc(-c4nnc[nH]4)cc3)s2)c(C)c1` [Compound 25], the IC50 was no more than 1000 nM.

`COc1ccc(NC(=O)c2ccc(C(=O)Nc3ccc(-n4cncn4)cc3)o2)c(C)c1` [Compound 26] gave an IC50 of no more than 1000 nM.

Molecule `O=C(Nc1ccc(-n2cncn2)c(F)c1)c1ccc(C(=O)NC2CCCCC2)o1` [Compound 27] has an IC50 of no more than 1000 nM.

For `C[C@H](NC(=O)c1ccc(C(=O)Nc2ccc(-n3cncn3)c(F)c2)o1)C1CCCCC1` [Compound 28], the IC50 was no more than 1000 nM.

`Cc1cc(N2CCN(C)CC2)ccc1NC(=O)c1ccc(C(=O)Nc2ccc(-n3cncn3)cc2)s1` [Compound 29] showed an IC50 of no more than 1000 nM.

Work on `Cc1cc(N2CCNCC2)ccc1NC(=O)c1ccc(C(=O)Nc2ccc(-n3cncn3)cc2)s1` [Compound 30] yielded an IC50 of no more than 1000 nM.

`Cc1ccccc1NC(=O)c1ccc(C(=O)Nc2ccc(-n3cncn3)cc2)o1` [Compound 31] showed an IC50 of no more than 1000 nM.

In the case of `Cc1cc(CN2CCN(C)CC2)ccc1NC(=O)c1ccc(C(=O)Nc2ccc(-n3cncn3)cc2)s1` [Compound 32], the IC50 is reported as no more than 1000 nM.

`Cc1cc(O)ccc1NC(=O)c1ccc(C(=O)Nc2ccc(-n3cncn3)cc2)s1` [Compound 33] showed an IC50 of no more than 1000 nM.

Work on `Cc1ccccc1C(=O)Nc1ccc(C(=O)Nc2ccc(-n3cncn3)cc2)s1` [Compound 34] yielded an IC50 of no more than 1000 nM.

`COc1ccc(NC(=O)c2ccc(C(=O)Nc3ccc(-n4cncn4)cc3)o2)cc1` [Compound 35] gave an IC50 of no more than 1000 nM.

Molecule `Cc1cc(N(C)CCN(C)C)ccc1NC(=O)c1ccc(C(=O)Nc2ccc(-n3cncn3)cc2)s1` [Compound 36] has an IC50 of no more than 1000 nM.

For `O=C(Nc1ccc(-n2cncn2)c(F)c1)c1ccc(C(=O)Nc2ccccc2F)s1` [Compound 37], the IC50 was no more than 1000 nM.

With `Cc1cc(N[C@H]2CCNC2)ccc1NC(=O)c1ccc(C(=O)Nc2ccc(-n3cncn3)cc2)s1` [Compound 38] the IC50 was no more than 1000 nM.

With `CN(C(=O)c1ccc(C(=O)Nc2ccc(-n3cncn3)cc2)s1)C1CCCCC1` [Compound 39] the IC50 was no more than 1000 nM.

Molecule `O=C(Nc1ccc(C(=O)Nc2ccc(-n3cncn3)cc2)s1)c1ccccc1` [Compound 40] has an IC50 of no more than 1000 nM.

`COc1ccc(NC(=O)c2ccc(C(=O)N3CCC(Oc4cnccn4)CC3)s2)c(C)c1` [Compound 41] was tested, and the IC50 was 1000 to 40000 nM.

For `COc1ccc(C(=O)Nc2ccc(C(=O)Nc3ccc(-n4cncn4)cc3)s2)cc1` [Compound 42], the IC50 was 1000 to 40000 nM.

`C[C@@H](NC(=O)c1ccc(C(=O)Nc2ccc(-n3cncn3)c(F)c2)o1)C1CCCCC1` [Compound 43] was tested, and the IC50 was 1000 to 40000 nM.

Work on `Cc1cc(NCCN(C)C)ccc1NC(=O)c1ccc(C(=O)Nc2ccc(-n3cncn3)cc2)s1` [Compound 44] yielded an IC50 of 1000 to 40000 nM.

`O=C(Nc1ccccc1)c1ccc(C(=O)Nc2ccc(-n3cncn3)cc2)o1` [Compound 45] showed an IC50 of 1000 to 40000 nM.

`O=C(Nc1ccc(-n2cncn2)c(F)c1)c1ccc(C(=O)Nc2ccccc2C(F)(F)F)s1` [Compound 46] was tested, and the IC50 was 1000 to 40000 nM.

In the case of `Cc1cc(CN(C)C)ccc1NC(=O)c1ccc(C(=O)Nc2ccc(-n3cncn3)cc2)s1` [Compound 47], the IC50 is reported as 1000 to 40000 nM.

`Cc1cc(CN(C)C)ccc1NC(=O)c1ccc(C(=O)Nc2ccc(-n3cncn3)c(F)c2)s1` [Compound 48] showed an IC50 of 1000 to 40000 nM.

`O=C(Nc1ccc(-n2cncn2)c(F)c1)c1ccc(C(=O)N[C@H]2CC[C@H](O)CC2)o1` [Compound 49] showed an IC50 of 1000 to 40000 nM.

For `COc1ccc(NC(=O)c2ccc(C(=O)N3CCC(c4ccncc4)C3)s2)c(C)c1` (centres unmarked) [Compound 50], the IC50 was 1000 to 40000 nM.

For `CNCc1ccc(NC(=O)c2ccc(C(=O)Nc3ccc(-n4cncn4)cc3)s2)c(C)c1` [Compound 51], the IC50 was 1000 to 40000 nM.

`O=C(NCCN1CCCC1)c1ccc(C(=O)Nc2ccc(-n3cncn3)cc2)s1` [Compound 52] showed an IC50 of 1000 to 40000 nM.

In the case of `O=C(Nc1ccc(Cl)cc1)c1ccc(C(=O)Nc2ccc(-n3cncn3)cc2)s1` [Compound 53], the IC50 is reported as 1000 to 40000 nM.

`O=C(Nc1ccc(-n2cncn2)cc1)c1ccc(C(=O)Nc2cccc(Cl)c2)s1` [Compound 54] gave an IC50 of 1000 to 40000 nM.

`Cc1ccsc1CNC(=O)c1ccc(C(=O)Nc2ccc(-n3cncn3)cc2)s1` [Compound 55] showed an IC50 of 1000 to 40000 nM.

For `O=C(Nc1ccc(-n2cncn2)cc1)c1ccc(C(=O)N[C@H]2CCc3ccccc32)s1` [Compound 56], the IC50 was 1000 to 40000 nM.

With `CC(=O)N1CCC(NC(=O)c2ccc(C(=O)Nc3ccc(-n4cncn4)cc3)s2)CC1` [Compound 57] the IC50 was 1000 to 40000 nM.

In the case of `O=C(Nc1ccc(-n2cncn2)cc1)c1ccc(C(=O)Nc2nc3ccccc3s2)s1` [Compound 58], the IC50 is reported as 1000 to 40000 nM.

`COc1cccc(NC(=O)c2ccc(C(=O)Nc3ccc(-n4cncn4)cc3)s2)c1OC` [Compound 59] showed an IC50 of 1000 to 40000 nM.

`O=C(Nc1ccc(-n2cncn2)cc1)c1ccc(C(=O)Nc2nc3c(s2)CCCC3)s1` [Compound 60] gave an IC50 of 1000 to 40000 nM.

Molecule `COc1ccc(NC(=O)c2ccc(C(=O)Nc3ccc(-n4cncn4)cc3)s2)cc1Cl` [Compound 61] has an IC50 of 1000 to 40000 nM.

In the case of `COc1ccc(Cl)cc1NC(=O)c1ccc(C(=O)Nc2ccc(-n3cncn3)cc2)s1` [Compound 62], the IC50 is reported as 1000 to 40000 nM.

For `O=C(NCc1ccccc1)c1ccc(C(=O)Nc2ccc(-n3cncn3)cc2)s1` [Compound 63], the IC50 was 1000 to 40000 nM.

With `Cn1nc(C2CC2)cc1NC(=O)c1ccc(C(=O)Nc2ccc(-n3cncn3)cc2)s1` [Compound 64] the IC50 was 1000 to 40000 nM.

`COc1ccc(NC(=O)c2ccc(C(=O)Nc3ccc(F)cc3-n3cncn3)s2)c(C)c1` [Compound 65] showed an IC50 of 1000 to 40000 nM.

For `Cn1nc(-c2ccccc2)cc1NC(=O)c1ccc(C(=O)Nc2ccc(-n3cncn3)cc2)s1` [Compound 66], the IC50 was 1000 to 40000 nM.

For `Cc1cc(NC(=O)c2ccc(C(=O)Nc3ccc(-n4cncn4)cc3)s2)n(C)n1` [Compound 67], the IC50 was 1000 to 40000 nM.

`COc1ccc(N(C)C(=O)c2ccc(C(=O)Nc3ccc(-n4cncn4)cc3)s2)cc1` [Compound 68] gave an IC50 of 1000 to 40000 nM.

In the case of `O=C(Nc1ccncc1)c1ccc(C(=O)Nc2ccc(-n3cncn3)cc2)o1` [Compound 69], the IC50 is reported as 1000 to 40000 nM.

Work on `CNCc1ccc(NC(=O)c2ccc(C(=O)Nc3ccc(-n4cncn4)c(F)c3)s2)c(C)c1` [Compound 70] yielded an IC50 of 1000 to 40000 nM.

Molecule `COc1ccc(NC(=O)c2ccc(C(=O)N3CCC(c4ccccn4)C3)s2)c(C)c1` (centres unmarked) [Compound 71] has an IC50 of 1000 to 40000 nM.

Molecule `COc1ccc(N(C)C(=O)c2ccc(C(=O)Nc3ccc(-n4cncn4)cc3)s2)c(C)c1` [Compound 72] has an IC50 of 1000 to 40000 nM.

In the case of `O=C(Nc1ccc(-n2cncn2)cc1)c1ccc(C(=O)NC2CCCC2)s1` [Compound 73], the IC50 is reported as 1000 to 40000 nM.

In the case of `O=C(Nc1ccc(-n2cncn2)cc1)c1ccc(C(=O)N2CCc3ccccc3C2)s1` [Compound 74], the IC50 is reported as 1000 to 40000 nM.

For `COC(=O)c1cc(OC)ccc1NC(=O)c1ccc(C(=O)Nc2ccc(-n3cncn3)cc2)s1` [Compound 75], the IC50 was 1000 to 40000 nM.

Reference: patent publication US7446195B2, “High affinity thiophene-based and furan-based kinase ligands” (Schering Corporation, priority 2005, dated 2008)
